Literature values as cited in patent US8758737B2, “Evaporative cooling composition” (priority 2005, dated 2014).

Settings: stated as a property of the alcohol (evaporative cooling); temperature not given

Row | Compound | vapor pressure
1 | CCO [ethyl alcohol] | about 41.0 mmHg
2 | CC(C)O [isopropyl alcohol] | 310 mmHg
